Results taken from PubChem BioAssay AID256 (DTP/NCI, 2004).
“And” between values parts separate entries of the source, which are not always exact repeats. Equal values may be shown once. Inconclusive results and toxic doses are left out.

System: CD2F1 mice, L1210 leukemia ip, survival T/C
Test: NCI In Vivo Anticancer Drug Screen. Data for tumor model L1210 Leukemia (intraperitoneal) in CD2F1 (CDF1) mice
Conditions: higher = longer survival
Procedure, shortened: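 Mice carrying a transplanted tumor received test compound or vehicle alone. The value is the measurement in the treated group divided by that in the vehicle-treated control group.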

[1] = endpoint: mean survival time, dose: 100.0 mg/kg/injection, schedule: Q04DX002 (ip), vehicle: saline with Tween-80
[2] = endpoint: mean survival time, dose: 200.0 mg/kg/injection, schedule: Q04DX002 (ip), vehicle: saline with Tween-80
[3] = endpoint: mean survival time, dose: 400.0 mg/kg/injection, schedule: Q04DX002 (ip), vehicle: saline with Tween-80
[4] = endpoint: mean survival time, dose: 25.0 mg/kg/injection, schedule: Q04DX002 (ip), vehicle: saline
[5] = endpoint: mean survival time, dose: 50.0 mg/kg/injection, schedule: Q04DX002 (ip), vehicle: saline
[6] = endpoint: mean survival time, dose: 100.0 mg/kg/injection, schedule: Q01DX001 (ip), vehicle: saline
[7] = endpoint: mean survival time, dose: 100.0 mg/kg/injection, schedule: Q01DX009 (ip), vehicle: saline with Tween-80
[8] = endpoint: mean survival time, dose: 200.0 mg/kg/injection, schedule: Q01DX001 (ip), vehicle: saline
[9] = endpoint: mean survival time, dose: 200.0 mg/kg/injection, schedule: Q01DX009 (ip), vehicle: saline with Tween-80
[10] = endpoint: mean survival time, dose: 400.0 mg/kg/injection, schedule: Q01DX001 (ip), vehicle: saline
[11] = endpoint: mean survival time, dose: 400.0 mg/kg/injection, schedule: Q01DX009 (ip), vehicle: saline with Tween-80
[12] = endpoint: mean survival time, dose: 100.0 mg/kg/injection, schedule: Q04DX003 (ip), vehicle: saline with Tween-80
[13] = endpoint: mean survival time, dose: 200.0 mg/kg/injection, schedule: Q04DX003 (ip), vehicle: saline with Tween-80
[14] = endpoint: mean survival time, dose: 400.0 mg/kg/injection, schedule: Q04DX003 (ip), vehicle: saline with Tween-80

CCCCSC(=O)Nc1ccccc1
T/C [1]: 95 % of control | T/C [2]: 92 % of control | T/C [3]: 92 % of control

O=C1CCCN1C1CC2c3ccccc3C1c1cccc[n+]12 (configuration not stated)
T/C (endpoint: mean survival time, dose: 5.0 mg/kg/injection, schedule: Q04DX003 (ip), vehicle: saline with Tween-80): 95 % of control | T/C (endpoint: mean survival time, dose: 10.0 mg/kg/injection, schedule: Q04DX003 (ip), vehicle: saline with Tween-80): 95 % of control | T/C (endpoint: mean survival time, dose: 20.0 mg/kg/injection, schedule: Q04DX003 (ip), vehicle: saline with Tween-80): 97 % of control

O=C1OC(O)(c2ccc(Cl)cc2)C(Cc2ccccc2)=C1c1ccccc1 (configuration not stated)
T/C [1]: 97 % of control | T/C [2]: 90 % of control | T/C [3]: 102 % of control

CC(C)CC(C)OP(=S)(S)OC(C)CC(C)C (configuration not stated)
T/C (endpoint: mean survival time, dose: 12.5 mg/kg/injection, schedule: Q04DX002 (ip), vehicle: saline): 95 % of control | T/C [4]: 95 % of control | T/C [5]: 109 % of control

Cc1ccc(C(C)C)c(OCCN)c1
T/C [4]: 94 % of control | T/C [5]: 97 % of control | T/C (endpoint: mean survival time, dose: 100.0 mg/kg/injection, schedule: Q04DX002 (ip), vehicle: saline): 93 % of control and 97 % of control

CN1CN(C2CCCCC2)CSC1=S
T/C [6]: 102 % of control | T/C [7]: 102 % of control | T/C [8]: 100 % of control | T/C [9]: 96 % of control | T/C [10]: 102 % of control | T/C [11]: 106 % of control

CC(NC(=O)OCc1ccccc1)C(=O)O (configuration not stated)
T/C [7]: 97 % of control | T/C [12]: 100 % of control | T/C [9]: 94 % of control | T/C [13]: 105 % of control | T/C [14]: 103 % of control

COC(=O)CCC(=O)NCCc1c[nH]c2ccccc12
T/C [12]: 98 % of control | T/C [13]: 93 % of control | T/C [14]: 98 % of control

CC(N)CC(=O)NO (configuration not stated)
T/C [6]: 104 % of control | T/C [8]: 104 % of control | T/C [10]: 108 % of control

NC1CS(=O)(=O)CC1O (configuration not stated)
T/C [12]: 98 % of control | T/C [13]: 96 % of control | T/C [14]: 95 % of control

CC1(C)C(=O)C(Br)=Cc2ccccc21
T/C (endpoint: mean survival time, dose: 12.5 mg/kg/injection, schedule: Q01DX009 (ip), vehicle: other): 105 % of control | T/C (endpoint: mean survival time, dose: 25.0 mg/kg/injection, schedule: Q01DX009 (ip), vehicle: other): 100 % of control | T/C (endpoint: mean survival time, dose: 50.0 mg/kg/injection, schedule: Q01DX009 (ip), vehicle: other): 111 % of control | T/C (endpoint: mean survival time, dose: 100.0 mg/kg/injection, schedule: Q01DX009 (ip), vehicle: other): 108 % of control | T/C (endpoint: mean survival time, dose: 200.0 mg/kg/injection, schedule: Q01DX009 (ip), vehicle: other): 105 % of control

Nc1nc2c(nc(Br)n2C2OC(CO)C(O)C2O)c(=O)[nH]1 (configuration not stated)
T/C [12]: 98 % of control | T/C [13]: 102 % of control | T/C [14]: 94 % of control

CC(=O)Nc1c(Cl)c(Cl)c2c(c1Cl)Cc1cc(Br)ccc1-2
T/C (endpoint: mean survival time, dose: 25.0 mg/kg/injection, schedule: Q01DX009 (ip), vehicle: Klucel (hydroxypropylcellulose) (HPC)): 109 % of control

Cc1cc(C)c(CC2(C)SCCCS2)c(C)c1
T/C (endpoint: median survival time, dose: 50.0 mg/kg/injection, schedule: Q04DX002 (ip), vehicle: saline with Tween-80): 100 % of control | T/C (endpoint: median survival time, dose: 100.0 mg/kg/injection, schedule: Q04DX002 (ip), vehicle: saline with Tween-80): 100 % of control | T/C (endpoint: median survival time, dose: 200.0 mg/kg/injection, schedule: Q04DX002 (ip), vehicle: saline with Tween-80): 100 % of control | T/C (endpoint: median survival time, dose: 400.0 mg/kg/injection, schedule: Q04DX002 (ip), vehicle: saline with Tween-80): 110 % of control

O/N=C\c1cccc2ccccc12
T/C [12]: 97 % of control | T/C [13]: 101 % of control

CCOC(=O)C(C(C)=O)C1=C(Cl)C(=O)c2ccccc2C1=O (configuration not stated)
T/C (endpoint: mean survival time, dose: 75.0 mg/kg/injection, schedule: Q01DX001 (ip), vehicle: other): 95 % of control | T/C (endpoint: mean survival time, dose: 150.0 mg/kg/injection, schedule: Q01DX001 (ip), vehicle: other): 94 % of control | T/C (endpoint: mean survival time, dose: 300.0 mg/kg/injection, schedule: Q01DX001 (ip), vehicle: other): 92 % of control

COc1ccc(N=N/N=c2\sc3cc(OC)ccc3n2C)cc1
T/C (endpoint: median survival time, dose: 7.5 mg/kg/injection, schedule: Q01DX005 (ip), vehicle: saline with Tween-80): 100 % of control | T/C (endpoint: median survival time, dose: 15.0 mg/kg/injection, schedule: Q01DX005 (ip), vehicle: saline with Tween-80): 105 % of control | T/C (endpoint: median survival time, dose: 30.0 mg/kg/injection, schedule: Q01DX005 (ip), vehicle: saline with Tween-80): 108 % of control | T/C (endpoint: median survival time, dose: 42.5 mg/kg/injection, schedule: Q01DX005 (ip), vehicle: saline with Tween-80): 102 % of control | T/C (endpoint: median survival time, dose: 60.0 mg/kg/injection, schedule: Q01DX005 (ip), vehicle: saline with Tween-80): 105 % of control | T/C (endpoint: median survival time, dose: 85.0 mg/kg/injection, schedule: Q01DX005 (ip), vehicle: saline with Tween-80): 102 % of control | T/C (endpoint: median survival time, dose: 120.0 mg/kg/injection, schedule: Q01DX005 (ip), vehicle: saline with Tween-80): 104 % of control | T/C (endpoint: median survival time, dose: 170.0 mg/kg/injection, schedule: Q01DX005 (ip), vehicle: saline with Tween-80): 100 % of control

O=S(=O)(c1ccccc1)c1cccs1
T/C (endpoint: mean survival time, dose: 50.0 mg/kg/injection, schedule: Q04DX003 (ip), vehicle: saline): 93 % of control | T/C [6]: 110 % of control | T/C (endpoint: mean survival time, dose: 100.0 mg/kg/injection, schedule: Q04DX003 (ip), vehicle: saline): 98 % of control | T/C [8]: 112 % of control | T/C (endpoint: mean survival time, dose: 200.0 mg/kg/injection, schedule: Q04DX003 (ip), vehicle: saline): 95 % of control | T/C [10]: 112 % of control

CCCCCC(C)C(C)=O (configuration not stated)
T/C [7]: 101 % of control | T/C [9]: 106 % of control | T/C [11]: 92 % of control

CCOC(=O)C(C#N)c1ccccc1 (configuration not stated)
T/C [1]: 94 % of control | T/C [2]: 94 % of control

COc1cc(/C=N/n2c(-c3ccccc3)nc3ccccc3c2=O)cc(Br)c1O
T/C (endpoint: mean survival time, dose: 50.0 mg/kg/injection, schedule: Q01DX009 (ip), vehicle: Klucel (hydroxypropylcellulose) (HPC)): 91 % of control | T/C (endpoint: mean survival time, dose: 100.0 mg/kg/injection, schedule: Q01DX009 (ip), vehicle: Klucel (hydroxypropylcellulose) (HPC)): 105 % of control | T/C (endpoint: mean survival time, dose: 200.0 mg/kg/injection, schedule: Q01DX009 (ip), vehicle: Klucel (hydroxypropylcellulose) (HPC)): 102 % of control

COC1OC(CO)C(O)C(O)C1O (configuration not stated) (tested in a mixture with another compound)
T/C (endpoint: mean survival time, dose: 100.0 mg/kg/injection, schedule: Q01DX001 (ip), vehicle: saline with Tween-80): 90 % of control | T/C (endpoint: mean survival time, dose: 200.0 mg/kg/injection, schedule: Q01DX001 (ip), vehicle: saline with Tween-80): 90 % of control | T/C (endpoint: mean survival time, dose: 400.0 mg/kg/injection, schedule: Q01DX001 (ip), vehicle: saline with Tween-80): 92 % of control

C=CCOc1cccc[n+]1CC(=O)CC(O)(C(F)(F)F)C(F)(F)F
T/C [12]: 95 % of control | T/C [13]: 92 % of control | T/C [14]: 97 % of control

Cc1ccc(C2(C(=O)O)CCCC2)cc1
T/C [7]: 96 % of control | T/C [12]: 97 % of control | T/C [9]: 97 % of control | T/C [13]: 98 % of control | T/C [11]: 90 % of control | T/C [14]: 95 % of control

CO[C@@]12[C@@H]3N[C@@H]3CN1C1=C(C(=O)C(N3CCOCC3)=C(C)C1=O)[C@@H]2COC(N)=O
T/C (endpoint: mean survival time, dose: 1.5 mg/kg/injection, schedule: Q01DX001 (ip), vehicle: distilled water + Tween-80): 118 % of control | T/C (endpoint: mean survival time, dose: 3.0 mg/kg/injection, schedule: Q01DX001 (ip), vehicle: distilled water + Tween-80): 123 % of control | T/C (endpoint: mean survival time, dose: 12.0 mg/kg/injection, schedule: Q01DX001 (ip), vehicle: distilled water + Tween-80): 115 % of control

CCOC(=O)C(Cc1ccc(OC)c(OC)c1)C(Cc1ccc(OC)c(OC)c1)C(=O)OCC (configuration not stated)
T/C [7]: 96 % of control | T/C [12]: 95 % of control | T/C [9]: 95 % of control | T/C [13]: 93 % of control | T/C [11]: 96 % of control | T/C [14]: 87 % of control

CCOC(=O)CCC(NC(=O)c1ccc(N(CC)Cc2cnc3nc(N)nc(N)c3n2)cc1)C(=O)OCC (configuration not stated)
T/C (endpoint: mean survival time, dose: 1.56 mg/kg/injection, schedule: Q01DX009 (ip), vehicle: Klucel (hydroxypropylcellulose) (HPC)): 152 % of control

NC(CSC1(c2ccccc2)c2ccccc2-c2ccccc21)C(=O)O (configuration not stated)
T/C (endpoint: mean survival time, dose: 25.0 mg/kg/injection, schedule: Q01DX009 (ip), vehicle: saline): 96 % of control | T/C (endpoint: mean survival time, dose: 50.0 mg/kg/injection, schedule: Q01DX009 (ip), vehicle: saline): 102 % of control | T/C (endpoint: mean survival time, dose: 100.0 mg/kg/injection, schedule: Q01DX009 (ip), vehicle: saline): 100 % of control | T/C (endpoint: mean survival time, dose: 200.0 mg/kg/injection, schedule: Q01DX009 (ip), vehicle: saline): 100 % of control | T/C (endpoint: mean survival time, dose: 400.0 mg/kg/injection, schedule: Q01DX009 (ip), vehicle: saline): 110 % of control
